Assay results reported in paper PMC7544826 (Communications Biology, 2020).
Entries after “also recorded” stand apart in the source; their conditions may differ.

Legend:
Notum [1] = target: T1, Notum (Homo sapiens, UniProt Q6P988, C330S); assay: SPR equilibrium binding to biotinylated Notum on streptavidin chip; design: The human Notum enzyme core comprising amino acids S81–T451 with a C330S mutation; made in house; dialyzed conditioned medium used without purification; details: result in words
T1 sequence (Q6P988 81-451 C330S): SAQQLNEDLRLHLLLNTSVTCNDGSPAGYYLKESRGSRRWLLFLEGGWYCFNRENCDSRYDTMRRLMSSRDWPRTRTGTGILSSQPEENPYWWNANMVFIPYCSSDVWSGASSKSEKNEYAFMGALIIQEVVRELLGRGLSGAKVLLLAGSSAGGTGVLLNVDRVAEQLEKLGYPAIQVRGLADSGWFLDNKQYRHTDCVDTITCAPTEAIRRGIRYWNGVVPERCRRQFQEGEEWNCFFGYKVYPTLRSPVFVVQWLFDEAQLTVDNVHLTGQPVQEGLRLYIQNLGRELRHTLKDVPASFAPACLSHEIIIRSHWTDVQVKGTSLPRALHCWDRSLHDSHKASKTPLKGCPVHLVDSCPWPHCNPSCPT
Method: The human Notum core sequence was cloned in a pHL-Avi3 vector[49] and co-transfected with the pDisplay_BirA-ER plasmid[50] into HEK293T cells with the media supplemented with 20 µM biotin. This procedure allows in vivo biotinylation to occur, and the dialyzed conditioned medium was directly used for SA sensor chip immobilization without protein purification. […] Approximately 2500 resonance units (RU) of the biotinylated Notum was coupled onto the chip. […] The response was plotted versus the concentration of the analytes and fitted by nonlinear regression to a one-site saturation binding model (GraphPad Prism 8).

Notum [2] = target: T1, Notum; assay: Thermal shift assay (SYPRO Orange) of Notum; details: compound 500 µM; for Thermoflour melting curve fluorescence of Notum: Fig 2c
Method: Reference wells, i.e. solutions without compounds were used to compare the melting temperature (Tm). The experiments were performed in triplicate.

Notum [3] = target: T1, Notum; assay: Notum activity assay with OPTS as substrate; assay type: biochemical; design: The human Notum enzyme core comprising amino acids S81–T451 with a C330S mutation; made in house; dialyzed conditioned medium used without purification; details: result in words
Method: OPTS is a common lipase substrate with an octanoyl lipid linked to a fluorescent moiety. It is not a natural Notum substrate; however, it can be used to quantify the enzymatic activity of purified Notum protein[23],[25],[28]. […] The fluorescent lipase substrate OPTS was dissolved in water at a concentration of 20 µM. […] The inhibition curves were fitted with a one-site model with GraphPad Prism 8 software.

Substance: 1,5-dimethylxanthine [theobromine]
- Binding to Notum (SPR response) (Notum [1]): did not observe significant responses; also recorded: do not bind Notum
- Thermoflour melting curve fluorescence of Notum (Notum [2]; Temperature 24.5): 1404.51
- Thermoflour melting curve fluorescence of Notum (Notum [2]; Temperature 25.5): 1219.92
- Thermoflour melting curve fluorescence of Notum (Notum [2]; Temperature 26.5): 1040.89
- Thermoflour melting curve fluorescence of Notum (Notum [2]; Temperature 27.5): 912.702
- Thermoflour melting curve fluorescence of Notum (Notum [2]; Temperature 28.5): 812.506
- Thermoflour melting curve fluorescence of Notum (Notum [2]; Temperature 29.5): 748.934
- Thermoflour melting curve fluorescence of Notum (Notum [2]; Temperature 30.5): 702.942
- Thermoflour melting curve fluorescence of Notum (Notum [2]; Temperature 31.5): 648.106
- Thermoflour melting curve fluorescence of Notum (Notum [2]; Temperature 32.5): 580.173
- Thermoflour melting curve fluorescence of Notum (Notum [2]; Temperature 33.5): 507.838
- Thermoflour melting curve fluorescence of Notum (Notum [2]; Temperature 34.5): 418.887
- Thermoflour melting curve fluorescence of Notum (Notum [2]; Temperature 35.5): 274.731
- Thermoflour melting curve fluorescence of Notum (Notum [2]; Temperature 36.5): 90.4697
- Thermoflour melting curve fluorescence of Notum (Notum [2]; Temperature 37.5): -139.16
- Thermoflour melting curve fluorescence of Notum (Notum [2]; Temperature 38.5): -392.32
- Thermoflour melting curve fluorescence of Notum (Notum [2]; Temperature 39.5): -608.25
- Thermoflour melting curve fluorescence of Notum (Notum [2]; Temperature 40.5): -782.991
- Thermoflour melting curve fluorescence of Notum (Notum [2]; Temperature 41.5): -908.263
- Thermoflour melting curve fluorescence of Notum (Notum [2]; Temperature 42.5): -987.266
- Thermoflour melting curve fluorescence of Notum (Notum [2]; Temperature 43.5): -1014
- Thermoflour melting curve fluorescence of Notum (Notum [2]; Temperature 44.5): -973.707
- Thermoflour melting curve fluorescence of Notum (Notum [2]; Temperature 45.5): -878.635
- Thermoflour melting curve fluorescence of Notum (Notum [2]; Temperature 46.5): -736.376
- Thermoflour melting curve fluorescence of Notum (Notum [2]; Temperature 47.5): -559.758
- Thermoflour melting curve fluorescence of Notum (Notum [2]; Temperature 48.5): -346.91
- Thermoflour melting curve fluorescence of Notum (Notum [2]; Temperature 49.5): -78.207
- Thermoflour melting curve fluorescence of Notum (Notum [2]; Temperature 50.5): 248.299
- Thermoflour melting curve fluorescence of Notum (Notum [2]; Temperature 51.5): 600.666
- Thermoflour melting curve fluorescence of Notum (Notum [2]; Temperature 52.5): 986.098
- Thermoflour melting curve fluorescence of Notum (Notum [2]; Temperature 53.5): 1440.99
- Thermoflour melting curve fluorescence of Notum (Notum [2]; Temperature 54.5): 1961.08
- Thermoflour melting curve fluorescence of Notum (Notum [2]; Temperature 55.5): 2560.53
- Thermoflour melting curve fluorescence of Notum (Notum [2]; Temperature 56.5): 3253.14
- Thermoflour melting curve fluorescence of Notum (Notum [2]; Temperature 57.5): 4045.69
- Thermoflour melting curve fluorescence of Notum (Notum [2]; Temperature 58.5): 5053.15
- Thermoflour melting curve fluorescence of Notum (Notum [2]; Temperature 59.5): 6367.38
- Thermoflour melting curve fluorescence of Notum (Notum [2]; Temperature 60.5): 8116.48
- Thermoflour melting curve fluorescence of Notum (Notum [2]; Temperature 61.5): 10309.5
- Thermoflour melting curve fluorescence of Notum (Notum [2]; Temperature 62.5): 12803.5
- Thermoflour melting curve fluorescence of Notum (Notum [2]; Temperature 63.5): 15345.7
- Thermoflour melting curve fluorescence of Notum (Notum [2]; Temperature 64.5): 17689.5
- Thermoflour melting curve fluorescence of Notum (Notum [2]; Temperature 65.5): 19737.1
- Thermoflour melting curve fluorescence of Notum (Notum [2]; Temperature 66.5): 21432.6
- Thermoflour melting curve fluorescence of Notum (Notum [2]; Temperature 67.5): 22887.7
- Thermoflour melting curve fluorescence of Notum (Notum [2]; Temperature 68.5): 24216
- Thermoflour melting curve fluorescence of Notum (Notum [2]; Temperature 69.5): 25446.3
- Thermoflour melting curve fluorescence of Notum (Notum [2]; Temperature 70.5): 26564.8
- Thermoflour melting curve fluorescence of Notum (Notum [2]; Temperature 71.5): 27592.2
- Thermoflour melting curve fluorescence of Notum (Notum [2]; Temperature 72.5): 28538.2
- Thermoflour melting curve fluorescence of Notum (Notum [2]; Temperature 73.5): 29406
- Thermoflour melting curve fluorescence of Notum (Notum [2]; Temperature 74.5): 30226.8
- Thermoflour melting curve fluorescence of Notum (Notum [2]; Temperature 75.5): 30994.2
- Thermoflour melting curve fluorescence of Notum (Notum [2]; Temperature 76.5): 31712.3
- Thermoflour melting curve fluorescence of Notum (Notum [2]; Temperature 77.5): 32380.8
- Thermoflour melting curve fluorescence of Notum (Notum [2]; Temperature 78.5): 33030.5
- Thermoflour melting curve fluorescence of Notum (Notum [2]; Temperature 79.5): 33697.5
- Thermoflour melting curve fluorescence of Notum (Notum [2]; Temperature 80.5): 34352.1
- Thermoflour melting curve fluorescence of Notum (Notum [2]; Temperature 81.5): 34969.9
- Thermoflour melting curve fluorescence of Notum (Notum [2]; Temperature 82.5): 35562.2
- Thermoflour melting curve fluorescence of Notum (Notum [2]; Temperature 83.5): 36162.5
- Thermoflour melting curve fluorescence of Notum (Notum [2]; Temperature 84.5): 36803.8
- Thermoflour melting curve fluorescence of Notum (Notum [2]; Temperature 85.5): 37475.6
- Thermoflour melting curve fluorescence of Notum (Notum [2]; Temperature 86.5): 38149.2
- Thermoflour melting curve fluorescence of Notum (Notum [2]; Temperature 87.5): 38788.7
- Thermoflour melting curve fluorescence of Notum (Notum [2]; Temperature 88.5): 39302.1
- Thermoflour melting curve fluorescence of Notum (Notum [2]; Temperature 89.5): 39800.1
- Thermoflour melting curve fluorescence of Notum (Notum [2]; Temperature 90.5): 40397.5
- Thermoflour melting curve fluorescence of Notum (Notum [2]; Temperature 91.5): 41008.7
- Thermoflour melting curve fluorescence of Notum (Notum [2]; Temperature 92.5): 41535.5
- Thermoflour melting curve fluorescence of Notum (Notum [2]; Temperature 93.5): 42071.6
- Thermoflour melting curve fluorescence of Notum (Notum [2]; Temperature 94.5): 42644
- Thermoflour melting curve fluorescence of Notum (Notum [2]; Temperature 95.5): 43225
- Thermoflour melting curve fluorescence of Notum (Notum [2]; Temperature 96.5): 43850.3
- Thermoflour melting curve fluorescence of Notum (Notum [2]; Temperature 97.5): 44460.4
- Effect on Tm of Notum (Notum [2]): little effect on the Tm
- Melting temperature (Tm) of Notum (Notum [2]; Notum without compounds Tm 63.6 °C): 63.4 °C
- Notum inhibitory effect in OPTS enzyme assay (Notum [3]): could not detect obvious Notum inhibitory effects
